EP2058315A1, “1H-Furo[3,2-C]Pyrazoles active as aurora kinase inhibitors” (Nerviano Medical Sciences S.r.l., priority 2007, dated 2009)
Read-outs that look alike come from different tables or passages of the source.

Assays:
Aurora-2 = target: T1, Aurora-2 (Homo sapiens, UniProt O14965); assay: Inhibition assay of Aurora-2 activity (SPA technology); assay type: biochemical
T1 sequence (O14965 1-403): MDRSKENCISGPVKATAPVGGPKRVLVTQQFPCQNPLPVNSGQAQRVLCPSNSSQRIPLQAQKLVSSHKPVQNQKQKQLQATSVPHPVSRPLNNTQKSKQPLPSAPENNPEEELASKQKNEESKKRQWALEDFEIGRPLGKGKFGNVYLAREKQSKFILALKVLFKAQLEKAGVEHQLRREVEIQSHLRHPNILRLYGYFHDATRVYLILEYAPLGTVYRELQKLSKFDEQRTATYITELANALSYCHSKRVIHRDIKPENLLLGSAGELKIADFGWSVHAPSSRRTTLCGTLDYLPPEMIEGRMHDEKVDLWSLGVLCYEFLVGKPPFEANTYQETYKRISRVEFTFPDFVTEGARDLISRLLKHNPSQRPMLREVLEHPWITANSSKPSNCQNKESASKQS
Experimental: The inhibiting activity and the potency of selected compounds is determined through a method of assay based on the use of the SPA technology (Amersham Pharmacia Biotech).
The assay consists of the transfer of radioactivity labelled phosphate moiety by the kinase to a biotinylated substrate. The resulting 33P-labelled biotinylated product is allowed to bind to streptavidin-coated SPA beads (biotin capacity 130 pmol/mg), and light emitted was measured in a scintillation counter.
Kinase reaction: 8 µM biotinylated peptide (4 repeats of LRRWSLG, commercially available from Sigma, catalogue no. L-3523), 10 µM ATP (0.5 uCi P^33γ-ATP), 7.5 ng Aurora 2, inhibitor in a final volume of 30 µl buffer (HEPES 50 mM pH 7.0, MgCl2 10 mM, 1 mM DTT, 0.2 mg/mL BSA, 3 µM orthovanadate) were added to each well of a 96 U bottom well plate. After 60 minutes at room temperature incubation, the reaction was stopped and biotinylated peptide captured by adding 100 µl of bead suspension.
Stratification: 100 µl of CsCl 5 M were added to each well and stood for 4 hours before radioactivity was counted in the Top-Count instrument.
IC50 determination: inhibitors were tested at different concentrations ranging from 0.0015 to 10 µM. Experimental data were analyzed by the computer program GraphPad Prizm using the four parameter logistic equation: y = bottom+(top-bottom)/(1+10^((logIC50-x)*slope)) where x is the logarithm of the inhibitor concentration, y is the response; y starts at bottom and goes to top with a sigmoid shape. Ki calculation: Experimental method: Reaction was carried out in buffer (10 mM Tris, pH 7.5, 10 mM MgCl2, 0.2 mg/mL BSA, 7.5 mM DTT) containing 3.7 nM enzyme, histone and ATP (constant ratio of cold/labeled ATP 1/3000). The reaction was stopped with EDTA and the substrate captured on phosphomembrane (Multiscreen 96 well plates from Millipore). After extensive washing, the multiscreen plates were read on a top counter. Control (time zero) for each ATP and histone concentrations was measured.

[1] = test system: human colon cancer cell line HCT-116; assay: In vitro cell proliferation assay; assay type: cell-based; settings: HCT-116, 72 hours of treatment, cell count, read-out: Cell Antiproliferation (HCT-116) IC50
Experimental: The human colon cancer cell line HCT-116 was seeded at 5000 cells/cm^2 in 24 wells plate (Costar) using F12 medium (Gibco) supplemented with 10% FCS (EuroClone, Italy) 2 mM L-glutamine and 1% penicillin/streptomycin and maintained at 37°C, 5% CO2 and 96% relative humidity. The following day, plates were treated in duplicates with 5ul of an appropriate dilution of compounds starting from a 10 mM stock in DMSO. Two untreated control wells were included in each plate. After 72 hours of treatment, medium was withdrawn and cells detached from each well using 0.5 mL of 0.05% (w/v) Trypsin, 0,02% (w/v) EDTA (Gibco). Samples were diluted with 9.5 mL of Isoton (Coulter) and counted using a Multisizer 3 cell counter (Beckman Coulter). Data were evaluated as percent of the control wells: % of CTR = (Treated - Blank)/(Control - Blank).
IC50 values were calculated by LSW/Data Analysis using Microsoft Excel sigmoidal curve fitting. […] See, as an example, the following Table 1 reporting the experimental data of some representative compounds of the invention being tested as Aurora-2 kinase inhibitors (IC50 nM) and for their cell antiproliferative effect (IC50 nM), namely: • Compound (1) is 3-[(Thiophene-2-carbonyl)-amino]-1H-furo[3,2-c]pyrazole-5-carboxylic acid (1-methyl-1-phenyl-ethyl)-amide; • Compound (2) is 3-(4-Morpholin-4-ylmethyl-benzoylamino)-1H-furo[3,2-c]pyrazole-5-carboxylic acid[1-(2-fluoro-phenyl)-1-methyl-ethyl]-amide • Compound (3) is 3-[4-(4-Methyl-piperazin-1-yl)-benzoylamino]-1H-furo[3,2-c]pyrazole-5-carboxylic acid (1-phenyl-cyclopropyl)-amide Table 1

[2] = 10 µM ATP, 60 minutes at room temperature, SPA, read-out: Aurora-2 inhibition IC50
[3] = screened according to the methods of the pharmacology section, read-out: IC50values for Aur2 inhibition

`CC(C)(NC(=O)c1cc2[nH]nc(NC(=O)c3cccs3)c2o1)c1ccccc1` [Compound 1, 3-[(Thiophene-2-carbonyl)-amino]-1H-furo[3,2-c]pyrazole-5-carboxylic acid (1-methyl-1-phenyl-ethyl)-amide] showed an IC50 (Aurora-2; [2]) of 3 nM, an IC50 (Aurora-2; [3]) of less than 10 nM and an IC50 [1] of 10 nM.

With `CC(C)(NC(=O)c1cc2[nH]nc(NC(=O)c3ccc(CN4CCOCC4)cc3)c2o1)c1ccccc1F` [Compound 2, 3-(4-Morpholin-4-ylmethyl-benzoylamino)-1H-furo[3,2-c]pyrazole-5-carboxylic acid[1-(2-fluoro-phenyl)-1-methyl-ethyl]-amide] the IC50 (Aurora-2; [2]) was 1 nM, the IC50 (Aurora-2; [3]) was less than 10 nM and the IC50 [1] was 2 nM. It also gave an IC50 ([1]; Homo sapiens, HCT-116, 72 h) of 4 to 10 nM.

Molecule `CN1CCN(c2ccc(C(=O)Nc3n[nH]c4cc(C(=O)NC5(c6ccccc6)CC5)oc34)cc2)CC1` [Compound 3, 3-[4-(4-Methyl-piperazin-1-yl)-benzoylamino]-1H-furo[3,2-c]pyrazole-5-carboxylic acid (1-phenyl-cyclopropyl)-amide] has an IC50 (Aurora-2; [2]) of 4 nM, an IC50 (Aurora-2; [3]) of less than 10 nM and an IC50 [1] of 4 nM. The IC50 ([1]; Homo sapiens, HCT-116, 72 h) was 4 to 10 nM.

Work on `CC(C)(NC(=O)c1cc2[nH]nc(NC(=O)c3cccs3)c2o1)c1ccccc1F` [Compound 57, N-[1-(2-fluorophenyl)-1-methylethyl]-3-[(2-thienylcarbonyl)amino]-1H-furo[3,2-c]pyrazole-5-carboxamide] yielded an IC50 (Aurora-2; [3]) of less than 10 nM.

For `CC(C)(NC(=O)c1cc2[nH]nc(NC(=O)c3cccs3)c2o1)c1ccc(F)cc1F` [Compound 58, N-[1-(2,4-difluorophenyl)-1-methylethyl]-3-[(2-thienylcarbonyl)amino]-1H-furo[3,2-c]pyrazole-5-carboxamide], the IC50 (Aurora-2; [3]) was less than 10 nM.

For `CC(C)(NC(=O)c1cc2[nH]nc(NC(=O)c3ccc(CN4CCCCC4)cc3)c2o1)c1ccccc1` [Compound 59, N-(1-methyl-1-phenylethyl)-3-{[4-(piperidin-1-ylmethyl)benzoyl]amino}-1H-furo[3,2-c]pyrazole-5-carboxamide], the IC50 (Aurora-2; [3]) was less than 10 nM.

With `CN1CCN(Cc2ccc(C(=O)Nc3n[nH]c4cc(C(=O)NC(C)(C)c5ccccc5F)oc34)cc2)CC1` [Compound 60, N-[1-(2-fluorophenyl)-1-methylethyl]-3-({4-[(4-methylpiperazin-1-yl)methyl]benzoyl}amino)-1H-furo[3,2-c]pyrazole-5-carboxamide] the IC50 (Aurora-2; [3]) was less than 10 nM.

Work on `CC(C)(NC(=O)c1cc2[nH]nc(NC(=O)c3ccoc3)c2o1)c1ccccc1` [Compound 62, 3-(3-furoylamino)-N-(1-methyl-1-phenylethyl)-1H-furo[3,2-c]pyrazole-5-carboxamide] yielded an IC50 (Aurora-2; [3]) of less than 10 nM.

With `CC(C)(NC(=O)c1cc2[nH]nc(NC(=O)c3ccsc3)c2o1)c1ccccc1` [Compound 63, N-(1-methyl-1-phenylethyl)-3-[(3-thienylcarbonyl)amino]-1H-furo[3,2-c]pyrazole-5-carboxamide] the IC50 (Aurora-2; [3]) was less than 10 nM.

For `CC(C)(NC(=O)c1cc2[nH]nc(NC(=O)c3cscn3)c2o1)c1ccccc1` [Compound 64, N-(1-methyl-1-phenylethyl)-3-[(1,3-thiazol-4-ylcarbonyl)amino]-1H-furo[3,2-c]pyrazole-5-carboxamide], the IC50 (Aurora-2; [3]) was less than 10 nM.

`CN1CCN(c2ccc(C(=O)Nc3n[nH]c4cc(C(=O)NC(C)(C)c5ccccc5F)oc34)cc2)CC1` [Compound 67, N-[1-(2-fluorophenyl)-1-methylethyl]-3-{[4-(4-methylpiperazin-1-yl)benzoyl]amino}-1H-furo[3,2-c]pyrazole-5-carboxamide] showed an IC50 (Aurora-2; [3]) of less than 10 nM.

In the case of `CC(C)(NC(=O)c1cc2[nH]nc(NC(=O)c3ccc(OCCN4CCCC4)cc3)c2o1)c1ccccc1` [Compound 68, N-(1-methyl-1-phenylethyl)-3-{[4-(2-pyrrolidin-1-ylethoxy)benzoyl]amino}-1H-furo[3,2-c]pyrazole-5-carboxamide], the IC50 (Aurora-2; [3]) is reported as less than 10 nM.

For `CC(C)(NC(=O)c1cc2[nH]nc(NC(=O)c3ccc(OCCN4CCCC4)cc3)c2o1)c1ccccc1F` [Compound 69, N-[1-(2-fluorophenyl)-1-methylethyl]-3-{[4-(2-pyrrolidin-1-ylethoxy)benzoyl]amino}-1H-furo[3,2-c]pyrazole-5-carboxamide], the IC50 (Aurora-2; [3]) was less than 10 nM.

`CC(C)NCc1ccc(C(=O)Nc2n[nH]c3cc(C(=O)NC(C)(C)c4ccccc4)oc23)cc1` [Compound 70, 3-({4-[(isopropylamino)methyl]benzoyl}amino)-N-(1-methyl-1-phenylethyl)-1H-furo[3,2-c]pyrazole-5-carboxamide] was tested, and the IC50 (Aurora-2; [3]) was less than 10 nM.

`CC(C)(NC(=O)c1cc2[nH]nc(NC(=O)c3ccccc3)c2o1)c1ccccc1` [Compound 71, 3-(benzoylamino)-N-(1-methyl-1-phenylethyl)-1H-furo[3,2-c]pyrazole-5-carboxamide] was tested, and the IC50 (Aurora-2; [3]) was less than 10 nM.

In the case of `CC(C)(NC(=O)c1cc2[nH]nc(NC(=O)c3ccccc3)c2o1)c1ccccc1F` [Compound 72, 3-(benzoylamino)-N-[1-(2-fluorophenyl)-1-methylethyl]-1H-furo[3,2-c]pyrazole-5-carboxamide], the IC50 (Aurora-2; [3]) is reported as less than 10 nM.

Molecule `CC(C)(NC(=O)c1cc2[nH]nc(NC(=O)c3ccc(CN4CCCC4)cc3)c2o1)c1ccccc1F` [Compound 73, N-[1-(2-fluorophenyl)-1-methylethyl]-3-{[4-(pyrrolidin-1-ylmethyl)benzoyl]amino}-1H-furo[3,2-c]pyrazole-5-carboxamide] has an IC50 (Aurora-2; [3]) of less than 10 nM.

`CC(C)(NC(=O)c1cc2[nH]nc(NC(=O)c3ccc(CN4CCCCC4)cc3)c2o1)c1ccccc1F` [Compound 74, N-[1-(2-fluorophenyl)-1-methylethyl]-3-{[4-(piperidin-1-ylmethyl)benzoyl]amino}-1H-furo[3,2-c]pyrazole-5-carboxamide] gave an IC50 (Aurora-2; [3]) of less than 10 nM.

Molecule `CC(C)(NC(=O)c1cc2[nH]nc(NC(=O)c3ccc(N4CCOCC4)cc3)c2o1)c1ccccc1` [Compound 75, N-(1-methyl-1-phenylethyl)-3-[(4-morpholin-4-ylbenzoyl)amino]-1H-furo[3,2-c]pyrazole-5-carboxamide] has an IC50 (Aurora-2; [3]) of less than 10 nM.
